Measured values as given in ChEMBL document CHEMBL1667752 (Eur J Med Chem, 2011).

Legend:
Cannabinoid receptor 2 = Cannabinoid receptor 2 (Homo sapiens, UniProt P34972); experiment: Displacement of [3H]CP 55940 from human CB2 receptor in cell free system; details: read-out: Ki
Cannabinoid receptor 1 = Cannabinoid receptor 1 (Homo sapiens, UniProt P21554); experiment: Displacement of [3H]CP 55940 from human CB1 receptor in cell free system
Homo sapiens = species: Homo sapiens; experiment: Selectivity ratio of Ki for human CB1 to Ki for human CB2

Cannabinoid receptor 1, sequence (P21554 whole entry): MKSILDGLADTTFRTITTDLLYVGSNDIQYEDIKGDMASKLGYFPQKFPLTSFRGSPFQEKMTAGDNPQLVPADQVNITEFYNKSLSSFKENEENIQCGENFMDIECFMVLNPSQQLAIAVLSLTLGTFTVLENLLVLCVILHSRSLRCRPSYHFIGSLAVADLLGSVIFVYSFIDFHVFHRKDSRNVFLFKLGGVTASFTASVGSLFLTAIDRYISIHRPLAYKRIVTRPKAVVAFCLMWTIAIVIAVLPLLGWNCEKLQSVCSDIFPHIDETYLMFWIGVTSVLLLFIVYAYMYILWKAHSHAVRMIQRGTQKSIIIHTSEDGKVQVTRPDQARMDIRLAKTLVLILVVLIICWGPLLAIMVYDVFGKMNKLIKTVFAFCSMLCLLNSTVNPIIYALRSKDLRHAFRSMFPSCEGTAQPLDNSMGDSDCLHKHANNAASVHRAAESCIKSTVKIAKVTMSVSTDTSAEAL
Cannabinoid receptor 2, sequence (P34972 whole entry): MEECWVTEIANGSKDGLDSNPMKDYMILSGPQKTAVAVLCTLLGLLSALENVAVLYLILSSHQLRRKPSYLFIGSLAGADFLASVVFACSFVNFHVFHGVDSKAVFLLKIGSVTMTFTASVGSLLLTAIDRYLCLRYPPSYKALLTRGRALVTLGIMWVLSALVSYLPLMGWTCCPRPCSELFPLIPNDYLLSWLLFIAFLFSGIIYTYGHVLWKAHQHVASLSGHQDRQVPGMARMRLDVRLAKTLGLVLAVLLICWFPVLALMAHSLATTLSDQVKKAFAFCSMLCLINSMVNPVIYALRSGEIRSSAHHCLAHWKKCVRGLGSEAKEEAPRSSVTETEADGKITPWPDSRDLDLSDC

Row | SMILES | Ki (Cannabinoid receptor 2) | Ki (Cannabinoid receptor 1) | log(ratioKi) (Homo sapiens)
1 | CCCCCCC(C)(C)c1cc(OC)c2c(c1)OC(C)(C)[C@@H]1CC=C(C)C[C@@H]21 | 6.4 nM | 1040 nM | 2.21
2 | CCCCCCC1CCCc2c1cc1c(c2O)[C@@H]2CC(C)=CC[C@H]2C(C)(C)O1 (some centres not stated) | 5.4 nM | 22.3 nM | 0.6
3 | CCCCCCC1(c2cc(O)c3c(c2)OC(C)(C)[C@@H]2CC=C(C)C[C@@H]32)OCCO1 | 0.2 nM | 0.5 nM | 0.43
4 | CCC(C)(C)C(=O)Cc1cc(C)c(C)c(S(=O)(=O)N2CCCCC2)c1 | 2.7 nM | 650 nM | 2.38
5 | CCCCCn1c(C)c(C(=O)c2ccc(CCCC)c3ccc(C)cc23)c2ccccc21 | 6.5 nM | 42 nM | 0.81
6 | CCCCCCn1cc(C(=O)NC2CCCCC2)c(=O)c2ccc(C)nc21 | 8 nM | 95 nM | 1.07
7 | Cc1c(C(C)(C)C)s/c(=N\S(=O)(=O)c2cccc3ccccc23)n1C1CC1 | 16 nM | 1700 nM | 2.02
8 | CC1=CC[C@@H]2[C@@H](C1)c1c(OC(=O)CCCN3CCOCC3)cc(C(C)(C)CCCCC#N)cc1OC2(C)C | 8 nM | 8.4 nM | 0.02
9 | Cc1ccc(C(=O)NC2C(C)(C)[C@@H]3CC[C@]2(C)C3)cc1S(=O)(=O)N1CCOCC1 (some centres not stated) | 3.9 nM | 130 nM | 1.5
